## C[P@@](c1nc2ccccc2nc1[P@](C)C(C)(C)C)C(C)(C)C [Compound (a3), (R,R)-2,3-bis(tert-butylmethylphosphino)quinoxaline]
  melting point: 102 to 103 °C
